Earlier results on one compound are cited in patent publication US12466782B2, “Arylcyclohexylamine derivatives and process for preparing same” (Technische Hochschule Köln, priority 2020, dated 2025).

The conditions of the series: mouse model.

Regarding `NC1(c2ccccc2Cl)CCCC(O)C1=O` (stereo not shown) [6-hydroxynorketamine], the “dose at which an effect comparable to that of 10 mg/kg ketamine was observed” value is listed as not below 25 mg/kg.
